SMILES strings stand for the structures. Residues, ends and D or L forms follow the SMILES beside them.

The nature of series [1]: Sensory evaluation of sweetness potency relative to sugar. The note with it: for Sweetnes Potency: Table 1, compared with 4% aqueous sucrose solution; for Sweetness Potency (sugar=1): sensory evaluation.
Series [2] can be described thus: Stability (half-life) heated to 70° C. in a phosphate buffer (pH=3). It counts as physicochemical.

For `CC(C)[C@@H](NC(=O)[C@@H](N)CC(=O)O)C(=O)N[C@@H](C)c1ccc(O)cc1` [Example 5, α-L-aspartyl-D-valine (S)-α-methyl-p-hydroxybenzylamide], in series [1], the “Sweetnes Potency” value worked out at 1000 and the “Sweetness Potency (sugar=1)” value came out at 1000.

With `COCC(NC(=O)[C@H](NC(=O)[C@@H](N)CC(=O)O)C(C)C)c1ccco1` (mixture of isomers) [Example 9, α-L-aspartyl-D-valine (RS)-α-furyl-β-methoxyethylamide], in series [1], the “Sweetnes Potency” value turned out to be 200 and the “Sweetness Potency (sugar=1)” value was “Approximately 200”.

As for `CC[C@H](NC(=O)[C@H](NC(=O)[C@@H](N)CC(=O)O)C(C)C)c1ccc(O)cc1` [Example 3, α-L-aspartyl-D-valine (S)-α-ethyl-p-hydroxybenzylamide], in series [1], the “Sweetnes Potency” value is given as 1500 and the “Sweetness Potency (sugar=1)” value was 1500.

Turning to `CC[C@H](NC(=O)[C@@H](CC)NC(=O)[C@@H](N)CC(=O)O)c1ccc(O)cc1` [Example 1, α-L-aspartyl-D-α-aminobutyric acid (S)-α-ethyl-p-hydroxybenzylamide], in series [1], the “Sweetnes Potency” value is on record as 2000 and the “Sweetness Potency (sugar=1)” value is reported as 2000.

For `COC[C@H](NC(=O)[C@H](NC(=O)[C@@H](N)CC(=O)O)C(C)C)c1ccc(O)cc1` [Example 4, α-L-aspartyl-D-valine (R)-α-methoxymethyl-p-hydroxybenzylamide], in series [1], the “Sweetnes Potency” value turned out to be 1250 and the “Sweetness Potency (sugar=1)” value came to 1250.

As for `COC[C@H](NC(=O)[C@H](NC(=O)[C@@H](N)CC(=O)O)C(C)C)c1ccc(OC)cc1` [Example 8, α-L-aspartyl-D-valine (R)-α-methoxymethyl-p-methoxybenzylamide], in series [1], the “Sweetnes Potency” value is given as 250 and the “Sweetness Potency (sugar=1)” value was “Approximately 250”.

In the case of `COC(=O)[C@H](Cc1ccccc1)NC(=O)[C@@H](N)CC(=O)O` [aspartame] (H-Asp-Phe-OMe), in series [2], the half-life entry is given as “approximately 1 days”.

Regarding `CC[C@H](NC(=O)[C@H](NC(=O)[C@@H](N)CC(=O)O)C(C)C)c1ccc(Cl)cc1` [Example 6, α-L-aspartyl-D-valine (S)-α-ethyl-p-chlorobenzylamide], in series [1], the “Sweetnes Potency” value was determined as 1250 and the “Sweetness Potency (sugar=1)” value is reported as 1250.

As for `CC[C@@H](NC(=O)[C@@H](N)CC(=O)O)C(=O)N[C@@H](COC)c1ccc(O)cc1` [Example 2, α-L-aspartyl-D-α-aminobutyric acid (R)-α-methoxymethyl-p-hydroxybenzylamide], in series [1], the “Sweetnes Potency” value came to 1500 and the “Sweetness Potency (sugar=1)” value was found to be 1500.

For `CC[C@H](NC(=O)[C@H](NC(=O)[C@@H](N)CC(=O)O)C(C)C)c1ccncc1` [Example 7, α-L-aspartyl-D-valine (S)-α-4-pyridylpropylamide], in series [1], the “Sweetnes Potency” value was found to be 300 and the “Sweetness Potency (sugar=1)” value is “Approximately 300”.

(Values after patent US5795612A, “Aspartyldipeptideamine derivatives and sweetner” (Ajinomoto Co., Inc., priority 1995, dated 1998).)
